# In publication PMC7464159, “Triple Negative Breast Cancer and Breast Epithelial Cells Differentially Reprogram Glucose and Lipid Metabolism upon Treatment with Triterpenic Acids” (Biomolecules, 2020):
# Tests used:
# [1] = system: MCF-10A cells; assay: 1H NMR metabolomics of polar (aqueous) cell extracts; format: cell-based, human; conditions: BA 5µM
# [2] = system: MDA-MB-231 cells; parameters: method as in PMID 22407812; conditions: BA 2.5–10 μM, 48 h; cited from earlier work
structure (smiles),measurement,setting,value
"C=C(C)[C@@H]1CC[C@]2(C(=O)O)CC[C@]3(C)[C@H](CC[C@@H]4[C@@]5(C)CC[C@H](O)C(C)(C)[C@@H]5CC[C@]43C)[C@@H]12 [BA, betulinic acid]",1-MethyInicotinamide %var,[1]; 48h,152.75%
same,3-Hydroxyisobutyrate %var,[1]; 48h,-48.45%
same,ATP %var,[1]; 48h,0%
same,Acetate %var,[1]; 48h,33.50%
same,Ala %var,[1]; 48h,-39.74%
same,Asp %var,[1]; 48h,-48.70%
same,Choline %var,[1]; 48h,46.22%
same,Citrate %var,[1]; 48h,-74.68%
same,Cr %var,[1]; 48h,59.47%
same,Dimethylamine %var,[1]; 48h,-40.51%
same,Formate %var,[1]; 48h,91.07%
same,Fumarate %var,[1]; 48h,-80.00%
same,GPC %var,[1]; 48h,307.70%
same,GSH %var,[1]; 48h,-31.85%
same,Gln %var,[1]; 48h,0%
same,Glu %var,[1]; 48h,-75.91%
same,Glucose %var,[1]; 48h,-56.45%
same,Glucose-1-phosphate %var,[1]; 48h,-93.58%
same,Gly %var,[1]; 48h,41.70%
same,His %var,[1]; 48h,-25.16%
same,Ile %var,[1]; 48h,218.16%
same,Lactate %var,[1]; 48h,161.49%
same,Leu %var,[1]; 48h,418.85%
same,NADH %var,[1]; 48h,62.88%
same,PC %var,[1]; 48h,-78.42%
same,PCr %var,[1]; 48h,0%
same,Phe %var,[1]; 48h,0%
same,Pro %var,[1]; 48h,80.04%
same,Tyr %var,[1]; 48h,-16.91%
same,UDP-GalNAc %var,[1]; 48h,123.58%
same,UDP-GlcNAc %var,[1]; 48h,151.53%
same,UDP-Glucose %var,[1]; 48h,-75.09%
same,Val %var,[1]; 48h,138.35%
same,myo -Lno %var,[1]; 48h,-19.23%
same,number of polar metabolites with altered intracellular levels,[1]; 48h,31
same,1-MethyInicotinamide %var,[1]; 48h+24h,56.61%
same,3-Hydroxyisobutyrate %var,[1]; 48h+24h,-48.51%
same,ATP %var,[1]; 48h+24h,0%
same,Acetate %var,[1]; 48h+24h,63.78%
same,Ala %var,[1]; 48h+24h,-65.18%
same,Asp %var,[1]; 48h+24h,-24.38%
same,Choline %var,[1]; 48h+24h,0%
same,Citrate %var,[1]; 48h+24h,-61.27%
same,Cr %var,[1]; 48h+24h,0%
same,Dimethylamine %var,[1]; 48h+24h,0%
same,Formate %var,[1]; 48h+24h,287.80%
same,Fumarate %var,[1]; 48h+24h,0%
same,GPC %var,[1]; 48h+24h,188.81%
same,GSH %var,[1]; 48h+24h,-24.73%
same,Gln %var,[1]; 48h+24h,0%
same,Glu %var,[1]; 48h+24h,-47.27%
same,Glucose %var,[1]; 48h+24h,0%
same,Glucose-1-phosphate %var,[1]; 48h+24h,-92.25%
same,Gly %var,[1]; 48h+24h,0%
same,His %var,[1]; 48h+24h,-44.80%
same,Ile %var,[1]; 48h+24h,36.26%
same,Lactate %var,[1]; 48h+24h,0%
same,Leu %var,[1]; 48h+24h,75.04%
same,NADH %var,[1]; 48h+24h,0%
same,PC %var,[1]; 48h+24h,0%
same,PCr %var,[1]; 48h+24h,0%
same,Phe %var,[1]; 48h+24h,-24.03%
same,Pro %var,[1]; 48h+24h,0%
same,Tyr %var,[1]; 48h+24h,-36.13%
same,UDP-GalNAc %var,[1]; 48h+24h,0%
same,UDP-GlcNAc %var,[1]; 48h+24h,0%
same,UDP-Glucose %var,[1]; 48h+24h,-66.89%
same,Val %var,[1]; 48h+24h,10.36%
same,myo -Lno %var,[1]; 48h+24h,-52.77%
same,cell cycle effect,[2],cell cycle arrest at G2/M phase
